Source: patent US20060069132A1, “Azolecarboxamide herbicides” (priority 2004, published 2006)

Experiments:
[1] = system: cocklebur; assay: Test B pre-/postemergence herbicide test; type: in vivo, Xanthium strumarium; settings: for Cocklebur plant response rating: postemergence, visual rating, scale 0 (no effect) to 100 (complete control)
Outline: (§1)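 Visual rating, 0 (no effect) to 100 (complete control), versus untreated controls after 13–15 d in greenhouse. Pre- and postemergence applications (postemergence plants 2–18 cm, 1–4 leaves); flooded paddy arm at 2-leaf stage. Compounds in non-phytotoxic solvent plus surfactant.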

[2] = system: rice; assay: Test B pre-/postemergence herbicide test; type: in vivo, Oryza sativa; settings: preemergence
Outline: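 Species tested were Echinochloa crus-galli, Ipomoea coccinea, Xanthium strumarium and Oryza sativa, treated both before emergence and at the 1- to 4-leaf stage; rice and barnyardgrass were also tested under flooding at 2 leaves. Greenhouse incubation lasted 13–15 days before visual 0–100 scoring.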

[3] = system: pigweed; assay: Test B pre-/postemergence herbicide test; type: in vivo, Amaranthus retroflexus; settings: for Pigweed plant response rating: postemergence, visual rating, scale 0 (no effect) to 100 (complete control)
Outline: (§2)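 Greenhouse pot assay with simultaneous preemergence (treated seed) and postemergence (2–18 cm seedlings) applications of surfactant-containing, non-phytotoxic solvent formulations. Response scored visually 13–15 days later on a 0–100 scale, 100 meaning complete control.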

[4] = system: giant foxtail; assay: Test B pre-/postemergence herbicide test; type: in vivo, Setaria faberi; settings: for Foxtail, Giant plant response rating: postemergence, visual rating, scale 0 (no effect) to 100 (complete control)
Outline: as §2

[5] = system: blackgrass; assay: Test B postemergence herbicide test; type: in vivo, Alopecurus myosuroides; settings: postemergence, visual rating, scale 0 (no effect) to 100 (complete control)
Outline: (§3)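 Visual ratings, 0 (no effect) to 100 (complete control), made versus controls after 13–15 d greenhouse. Paddy plants treated at 2-leaf stage; postemergence plants at 1- to 4-leaf stage, 2–18 cm tall.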

[6] = system: rice; assay: Test B flooded paddy test; type: in vivo, Oryza sativa; settings: 1000 g ai/ha, visual rating, scale 0 to 100 (0 no effect, 100 complete control), 13 to 15 days
Outline: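 Greenhouse test; postemergence application to plants at 1–4 leaves (2–18 cm); paddy species at 2 leaves; evaluated visually vs controls at 13–15 days; scale 0–100 (100 = complete control).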

[7] = system: Surinam grass; assay: Test B pre-/postemergence herbicide test; type: in vivo, Urochloa decumbens; settings: for Surinam Grass plant response rating: postemergence, visual rating, scale 0 (no effect) to 100 (complete control)
Outline: as §2

[8] = system: barnyardgrass; assay: Test B pre-/postemergence herbicide test; type: in vivo, Echinochloa crus-galli; settings: for Barnyardgrass plant response rating: postemergence, visual rating, scale 0 (no effect) to 100 (complete control)
Outline: as §1

[9] = system: wheat; assay: Test B postemergence herbicide test; type: in vivo, Triticum aestivum; design: key to Wheat plant response rating: 0 = no effect, 100 = complete control; settings: postemergence, visual rating, scale 0 (no effect) to 100 (complete control)
Outline: (§4)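 Formulated test chemicals went onto postemergence plants measuring 2 to 18 cm, at one to four leaves. For the paddy assay, species had reached two leaves. Scoring took place 13–15 days later by eye, relative to untreated plants, using 0 for no effect up to 100 for full control.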

[10] = system: morningglory; assay: Test B pre-/postemergence herbicide test; type: in vivo, Ipomoea coccinea; settings: for Morningglory plant response rating: postemergence, visual rating, scale 0 (no effect) to 100 (complete control)
Outline: as §1

[11] = system: barnyardgrass; assay: Test B flooded paddy test; type: in vivo, Echinochloa crus-galli; settings: 1000 g ai/ha, visual rating, scale 0 to 100 (0 no effect, 100 complete control), 13 to 15 days
Outline: as §3

[12] = system: wild oat; assay: Test B postemergence herbicide test; type: in vivo, Avena fatua; settings: postemergence, visual rating, scale 0 (no effect) to 100 (complete control)
Outline: as §4

[13] = system: large crabgrass; assay: Test B pre-/postemergence herbicide test; type: in vivo, Digitaria sanguinalis; settings: for Crabgrass, Large plant response rating: postemergence, visual rating, scale 0 (no effect) to 100 (complete control)
Outline: as §2

[14] = system: small flower umbrella sedge; assay: Test B flooded paddy test; type: in vivo, Cyperus difformis; settings: 1000 g ai/ha, visual rating, scale 0 to 100 (0 no effect, 100 complete control), 13 to 15 days
Outline: as §3

[15] = system: ducksalad; assay: Test B flooded paddy test; type: in vivo, Heteranthera limosa; settings: 1000 g ai/ha, visual rating, scale 0 to 100 (0 no effect, 100 complete control), 13 to 15 days
Outline: as §3

[16] = system: lambsquarters; assay: Test B pre-/postemergence herbicide test; type: in vivo, Chenopodium album; settings: for Lambsquarters plant response rating: postemergence, visual rating, scale 0 (no effect) to 100 (complete control)
Outline: as §2

[17] = system: velvetleaf; assay: Test B pre-/postemergence herbicide test; type: in vivo, Abutilon theophrasti; settings: for Velvetleaf plant response rating: postemergence, visual rating, scale 0 (no effect) to 100 (complete control)
Outline: as §2

[18] = system: corn; assay: Test B pre-/postemergence herbicide test; type: in vivo, Zea mays; settings: for Corn plant response rating: postemergence, visual rating, scale 0 (no effect) to 100 (complete control)
Outline: as §2

[19] = 125 g ai/ha, 0 = no effect, 100 = complete control, preemergence
[20] = 500 g ai/ha, visual rating 0-100, 0 no effect, 100 complete control, preemergence

CCNC(=O)c1cccc(NC(=O)c2nn(C(C)(C)C)cc2C(F)(F)F)c1 [Compound 170]
10: Foxtail, Giant plant response rating ([4]; 500 g ai/ha) | Surinam Grass plant response rating ([7]; 125 g ai/ha) | Surinam Grass plant response rating ([7]; 500 g ai/ha) | Barnyardgrass plant response rating ([8]; 500 g ai/ha) | Plant response rating, Morningglory [10, 20] | Barnyardgrass plant response rating [11] | Oat, Wild plant response rating ([12]; 125 g ai/ha) | Oat, Wild plant response rating ([12]; 500 g ai/ha) | Crabgrass, Large plant response rating ([13]; 125 g ai/ha) | Crabgrass, Large plant response rating ([13]; 500 g ai/ha) | Velvetleaf plant response rating ([17]; 125 g ai/ha) | Corn plant response rating ([18]; 500 g ai/ha)
90: Plant response rating, Pigweed [3, 20]
30: Pigweed plant response rating ([3]; 125 g ai/ha) | Plant response rating, Surinam Grass [7, 20] | Plant response rating, Barnyardgrass [8, 20] | Morningglory plant response rating ([10]; 125 g ai/ha)
70: Lambsquarters plant response rating ([16]; 500 g ai/ha)
0: Cocklebur plant response rating (0 to 100 scale) [1, 19] | Plant response rating, Cocklebur [1, 20] | Cocklebur plant response rating ([1]; 125 g ai/ha) | Cocklebur plant response rating ([1]; 500 g ai/ha) | Rice plant response rating (0 to 100 scale) ([2]; 125 g ai/ha, 0 = no effect, 100 = complete control) | Plant response rating, Rice ([2]; 500 g ai/ha, visual rating 0-100, 0 no effect, 100 complete control) | Pigweed plant response rating (0 to 100 scale) [3, 19] | Foxtail, Giant plant response rating (0 to 100 scale) [4, 19] | Foxtail, Giant plant response rating ([4]; 125 g ai/ha) | Blackgrass plant response rating ([5]; 125 g ai/ha) | Blackgrass plant response rating ([5]; 500 g ai/ha) | Surinam Grass plant response rating (0 to 100 scale) [7, 19] | Barnyardgrass plant response rating (0 to 100 scale) [8, 19] | Barnyardgrass plant response rating ([8]; 125 g ai/ha) | Wheat plant response rating ([9]; 125 g ai/ha) | Wheat plant response rating ([9]; 500 g ai/ha) | Morningglory plant response rating (0 to 100 scale) [10, 19] | Ducksalad plant response rating [15] | Lambsquarters plant response rating (0 to 100 scale) [16, 19] | Velvetleaf plant response rating (0 to 100 scale) [17, 19] | Corn plant response rating (0 to 100 scale) [18, 19] | Plant response rating, Corn [18, 20] | Corn plant response rating ([18]; 125 g ai/ha)
50: Pigweed plant response rating ([3]; 500 g ai/ha)
60: Lambsquarters plant response rating ([16]; 125 g ai/ha)
20: Plant response rating, Foxtail, Giant [4, 20] | Rice plant response rating [6] | Crabgrass, Large plant response rating (0 to 100 scale) [13, 19] | Sedge, Umbrella plant response rating [14] | Plant response rating, Velvetleaf [17, 20] | Velvetleaf plant response rating ([17]; 500 g ai/ha)
80: Morningglory plant response rating ([10]; 500 g ai/ha) | Plant response rating, Crabgrass, Large [13, 20] | Plant response rating, Lambsquarters [16, 20]
